SMILES strings stand for the structures.

Data set [1] can be described thus: LNP average particle size and polydispersity by dynamic light scattering (Malvern Zetasizer). Type of data set: physicochemical. The method in brief:
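LNPs diluted in PBS to a count rate of about 200–400 kcps and measured by dynamic light scattering. Size given as intensity-weighted Z-average diameter, with number-average diameter and polydispersity index also reported.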

In the next data set the test system is B2M. Kind of data set: B2M editing in mouse liver by NGS after i.v. LNP delivery of Cas9 mRNA and sgRNA. It is filed as in vivo. The following applies: for Editing (%) of B2M in mouse liver: Example 52: LNP single dose 0.1 mg/kg i.v., sgRNA G650:Cas9 mRNA 1:1, NGS; for Editing (%) of B2M in mouse liver / Editing (%) B2M liver / % Editing B2M in mouse liver: CD-1 female mice; for Editing (%) B2M liver: 6 days post-dose; for Editing (%) B2M liver / % Editing B2M in mouse liver: G650 1:1; for % Editing B2M in mouse liver: 7 days post-dose. Here is the method:
Preparations of various LNP compositions were prepared with amine lipids. In assays for percent liver editing in mice, Cas9 mRNA and chemically modified sgRNA were formulated in LNPs, at either a 1:1 w/w ratio or a 1:2 w/w ratio. LNPs are formulated with a composition of a given ionizable lipid (e.g. an amine lipid), DSPC, cholesterol, and PEG-2k-DMG, with a 6.0 N:P ratio.
LNPs were administered to mice by a single dose at 0.1 mg/kg, unless otherwise noted and genomic DNA was isolated for NGS analysis as described below.
CD-1 female mice, ranging from 6-10 weeks of age were used in each study. Animals were weighed and grouped according to body weight for preparing dosing solutions based on group average weight. LNPs were dosed via the lateral tail vein in a volume of 0.2 mL per animal (approximately 10 mL per kilogram body weight). The animals were periodically observed post dose for adverse effects for at least 24 hours post dose. Animals were euthanized at 6 or 7 days by exsanguination via cardiac puncture under isoflurane anesthesia. Blood was collected into serum separator tubes or into tubes containing buffered sodium citrate for plasma as described herein. For studies involving in vivo editing, liver tissue was collected from each animal for DNA extraction and analysis.
Cohorts of mice were measured for liver editing by Next-Generation Sequencing (NGS).
In brief, to quantitatively determine the efficiency of editing at the target location in the genome, genomic DNA was isolated and deep sequencing was utilized to identify the presence of insertions and deletions introduced by gene editing.
PCR primers were designed around the target site (e.g., B2M), and the genomic area of interest was amplified. Additional PCR was performed according to the manufacturer's protocols (Illumina) to add the necessary chemistry for sequencing. The amplicons were sequenced on an Illumina MiSeq instrument. The reads were aligned to the […] after eliminating those having low quality scores. The resulting files containing the reads were mapped to the reference genome (BAM files), where reads that overlapped the target region of interest were selected and the number of wild type reads versus the number of reads which contain an insertion, substitution, or deletion was calculated.
The editing percentage (e.g., the “editing efficiency” or “percent editing”) is defined as the total number of sequence reads with insertions or deletions over the total number of sequence reads, including wild type.
CD-1 female mice were dosed i.v. at 0.1 mpk or 0.3 mpk. […] For animals dosed with G282 targeting TTR, blood and the liver were collected and serum TTR and editing were measured. For animals dosed with G650 targeting B2M, liver was collected and editing was measured.

The mark [2] stands for this setting: Table 12, Example 56: LNP, G282.
Setting [3] is: Table 16, Example 59: LNP, G282 1:1.
Setting [4] is: Table 20, Example 61: LNP, G282 1:1.
[5] abbreviates: Example 53 text: 0.1 mpk vs 0.3 mpk.
[6] abbreviates: Table 3, Example 52: LNP, Cas9 mRNA + sgRNA (G650) 1:1 w/w, N:P 6.0.
[7] abbreviates: Table 5, Example 53: LNP with gRNA G282 (TTR).
Setting [8] is: Table 5, Example 53: LNP with gRNA G650 (B2M).
Setting [9] is: Table 10, Example 55: LNP, G282 1:1.
[10] abbreviates: Table 14, Example 58: LNP, G282 1:1.
The mark [11] stands for this setting: Table 18, Example 60: LNP, G502 1:2.
The mark [12] stands for this setting: Table 22, Example 62: LNP, G282 1:2.
[13] abbreviates: Table 24, Example 63: LNP, G282 1:1.
Where [14] appears, read: Table 8, Example 54: LNP, G650 (B2M) 1:1.
The mark [15] stands for this setting: Table 26, Example 64: LNP, G282 1:1.

Regarding `CCCCCCCCCOC(=O)CCCCCCCN(CCO)CCCCCCCC(=O)OC(CCCCCCCC)CCCCCCCC` [Compound 18, heptadecan-9-yl 8-((2-hydroxyethyl)(8-(nonyloxy)-8-oxooctyl)amino)octanoate, reference compound], in data set [1] (setting [2]), the “Num Ave Size (nm)” value was found to be 69.77 nm, the PDI was determined as 0.112 and the “Z-Ave Size (nm)” value came to 106.6 nm. For the same molecule, in data set [1] (setting [3]), the “Num Ave Size (nm)” value worked out at 53.06 nm, the PDI came out at 0.093 and the “Z-Ave Size (nm)” value is recorded as 75.79 nm. In data set [1] (setting [4]), the “Num Ave Size (nm)” value came out at 52.25 nm, the PDI is 0.083 and the “Z-Ave Size (nm)” value stood at 74.67 nm.
On to `CCCCCCCCCOC(=O)CCCCCCCN(CCO)CCCCCCCC(OCCCCCCCC)OCCCCCCCC` [Compound 1, nonyl 8-((8,8-bis(octyloxy)octyl)(2-hydroxyethyl)amino octanoate], for which the “Editing (%) of B2M in mouse liver” value with B2M is reported as 36.8%. Also, the “Editing (%) B2M liver” value with B2M (Example 53: 0.1 mpk i.v.) was 41.0%; with B2M (Example 53: 0.3 mpk i.v.), 62.9%. Further, the “B2M editing in the liver compared with Compound 19” value in the data set with B2M (Example 53 text: 0.1 and 0.3 mpk) was “higher B2M editing in the liver than Compound 19 at each dose”. The “dose response of B2M editing in liver” value with B2M (setting [5]) was “increased editing of B2M in liver significantly between the 0.1 mpk and 0.3 mpk doses”. Further, the “Num Ave Size (nm)” value in data set [1] (setting [6]) is reported as 57.04 nm; in data set [1] (setting [7]), 61.19 nm; in data set [1] (setting [8]), 65.11 nm; in data set [1] (setting [9]), 55.38 nm; in data set [1] (setting [10]) it was 55.38 nm; in data set [1] (setting [3]) it was 57.78 nm. The entries for the “Num Ave Size (nm)” value in data set [1] (setting [11]), in data set [1] (setting [12]) and in data set [1] (setting [13]) were 58.01 nm, 58.01 nm and 52 nm, respectively. For the same molecule, the PDI in data set [1] (setting [6]) was found to be 0.105; in data set [1] (setting [7]), 0.008; in data set [1] (setting [8]), 0.028; in data set [1] (setting [9]) it was 0.05; in data set [1] (setting [10]), 0.05; in data set [1] (setting [3]) it was 0.04. Besides, the PDI in data set [1] (setting [11]) is 0.037; in data set [1] (setting [12]), 0.037; in data set [1] (setting [13]), 0.06. Besides, the “Z-Ave Size (nm)” value in data set [1] (setting [6]) was 79.49 nm; in data set [1] (setting [7]), 75.77 nm; in data set [1] (setting [8]) it was 80.96 nm; in data set [1] (setting [9]), 69.94 nm; in data set [1] (setting [10]), 69.94 nm; in data set [1] (setting [3]) it was 72.21 nm. Further, the “Z-Ave Size (nm)” value in data set [1] (setting [11]) came to 74.5 nm; in data set [1] (setting [12]), 74.5 nm; in data set [1] (setting [13]), 70 nm.
Turning to `CCCCC/C=C\C/C=C\CCCCCCCC(=O)OCC(COC(=O)CCC(OCCCCCCCC)OCCCCCCCC)COC(=O)OCCCN(CC)CC` (stereo not drawn) [Compound 19, 3-((4,4-bis(octyloxy)butanoyl)oxy)-2-(((((3-(diethylamino)propoxy))-carbonyl)oxy)methyl)propyl (9Z,12Z)-octadeca-9,12-dienoate, reference compound], the “Editing (%) of B2M in mouse liver” value in the data set with B2M was 12.0%. Besides, the “Editing (%) B2M liver” value in the data set on B2M (Example 53: 0.1 mpk i.v.) is 25.5%; in the data set on B2M (Example 53: 0.3 mpk i.v.) it was 43.4%. Also, the “dose response of B2M editing in liver” value in the data set with B2M (setting [5]) was “increased editing of B2M in liver significantly between the 0.1 mpk and 0.3 mpk doses”; with B2M (Example 54 text: 0.1 mpk vs 0.3 mpk, 7 days) it was “increased editing at the 0.3 mpk dose compared to the 0.1 mpk dose”. The “% Editing B2M in mouse liver” value in the data set with B2M (Example 54: 0.1 mpk i.v.) was 13%; with B2M (Example 54: 0.3 mpk i.v.), 44%. Further, the “Num Ave Size (nm)” value in data set [1] (setting [6]) came to 64.97 nm; in data set [1] (setting [7]), 62.86 nm; in data set [1] (setting [8]) it was 64.97 nm; in data set [1] (setting [14]), 64.97 nm; in data set [1] (setting [9]) it was 64.95 nm; in data set [1] (setting [2]), 63.19 nm. Also, the “Num Ave Size (nm)” value in data set [1] (setting [10]) was 71.1 nm; in data set [1] (setting [3]), 71.49 nm; in data set [1] (setting [11]), 73.15 nm; in data set [1] (setting [4]), 71.49 nm; in data set [1] (setting [12]) it was 73.15 nm; in data set [1] (setting [13]), 66 nm. Besides, the “Num Ave Size (nm)” value in data set [1] (setting [15]) stood at 65 nm. In addition, the PDI stood at 0.056 in data set [1] (setting [6]); 0.015 in data set [1] (setting [7]); 0.056 in data set [1] (setting [8]); 0.056 in data set [1] (setting [14]); 0.025 in data set [1] (setting [9]); 0.047 in data set [1] (setting [2]). Also, the PDI in data set [1] (setting [10]) was 0.007; in data set [1] (setting [3]), 0.02; in data set [1] (setting [11]), 0.033; in data set [1] (setting [4]) it was 0.02; in data set [1] (setting [12]) it was 0.033; in data set [1] (setting [13]), 0.03. For the same molecule, the PDI in data set [1] (setting [15]) stood at 0.03. The “Z-Ave Size (nm)” value in data set [1] (setting [6]) was found to be 82.71 nm; in data set [1] (setting [7]), 79.83 nm; in data set [1] (setting [8]), 82.71 nm; in data set [1] (setting [14]) it was 82.71 nm; in data set [1] (setting [9]), 81.76 nm; in data set [1] (setting [2]), 79.18 nm. The “Z-Ave Size (nm)” value in data set [1] (setting [10]) is recorded as 84.99 nm; in data set [1] (setting [3]), 86.84 nm; in data set [1] (setting [11]), 88.6 nm; in data set [1] (setting [4]) it was 86.84 nm; in data set [1] (setting [12]) it was 88.6 nm; in data set [1] (setting [13]), 82 nm. Also, the “Z-Ave Size (nm)” value in data set [1] (setting [15]) was determined as 83 nm.
Consider `CCCCCCCCOC(CCCCCCCN(CCO)CCCCCCCC(=O)OC(CC)CCCCCC)OCCCCCCCC` (stereo not drawn) [Compound 28, nonan-3-yl 8-((8,8-bis(octyloxy)octyl)(2-hydroxyethyl)amino)octanoate], for which, in data set [1] (setting [13]), the “Num Ave Size (nm)” value stood at 42 nm, the PDI came to 0.30 and the “Z-Ave Size (nm)” value came out at 78 nm.
For `CCCCCCCCOC(CCCCCCCN(CCO)CCCCCCCC(=O)OC(CC)CCCCCCCC)OCCCCCCCC` (stereo not drawn) [Compound 17, undecan-3-yl 8-((8,8-bis(octyloxy)octyl)(2-hydroxyethyl)amino)octanoate], in data set [1] (setting [10]), the “Num Ave Size (nm)” value is 54.25 nm, the PDI is listed as 0.056 and the “Z-Ave Size (nm)” value came to 68.72 nm. Also, in data set [1] (setting [12]), the “Num Ave Size (nm)” value worked out at 44.93 nm, the PDI is 0.072 and the “Z-Ave Size (nm)” value was 62.89 nm.

These data come from patent publication US20260225997A1, “IONIZABLE AMINE LIPIDS” (Intellia Therapeutics, Inc., priority 2018, published 2026).
